Experimental data taken from patent US8575094B2, “Use of type-B lantibiotic-based compounds having antimicrobial activity” (Novacta Biosystems Limited, priority 2007, dated 2013).
≈ marks a conversion by molar mass, not a printed value. Like-named read-outs stand apart in the source and are kept apart here.

What was measured:
[1] = Stability in Simulated Gastric Fluid (SGF), HPLC; type: in vitro ADME; settings: 37° C.
Source text: (§1) The preferred method of dosage for the treatment of C. difficile infections is via the oral route of administration. […] Whilst the oral absorption of peptides and related substances of a molecular weight >1,000 Daltons is generally low, metabolism through peptidase enzymes is generally rapid and indeed forms an essential part of the normal digestion of food. The susceptibility of peptides towards enzymatic digestion in the stomach and intestine can reliably be estimated in vitro by measuring their stability in Simulated Gastric Fluid USP ([…], pepsin in saline, pH 1.2) and Simulated Intestinal Fluid USP (SIF, pancreatin in aqueous potassium dihydrogen phosphate, pH 6.8).
(§2) Nisin and mersacidin were tested for their susceptibility towards enzymatic digestion in the stomach and intestine. The SGF and SIF were based on the standard USP solutions for simulated gastric and simulated intestinal fluids and their activity confirmed against Bovine Serum Albumin (Hilger et al, 2001). The compounds were incubated in SGF or SIF at 37° C. and their concentrations quantified by analytical HPLC (UV detection at 210 nm). The potential degradation of each compound was also monitored qualitatively by measuring in vitro antibacterial activity against Micrococcus luteus.

[2] = Stability in Simulated Intestinal Fluid (SIF), HPLC; type: in vitro ADME; settings: 37° C.
Source text: as §1, §2

[3] = system: Micrococcus luteus; assay: In vitro antibacterial activity against Micrococcus luteus during SGF/SIF incubation; type: cell-based; settings: incubation in SGF or SIF at 37° C.
Experimental: as §2

[4] = system: C. difficile spores; assay: Sporicidal activity: viable counts of C. difficile spores exposed to antibiotics; type: cell-based; settings: for Viable counts of C. difficile spores: antibiotic at 100 µg/ml
Source text: An agent capable of killing, or preventing the successful germination of C. difficile spores would therefore be of considerable interest. To determine the effects of type B lantibiotics on C. difficile spores, suspensions of spores were exposed to antibiotics ([…]) and aliquots were taken at appropriate time points. The spores in each aliquot were filtered off and plated out on to Brazier's agar.

[5] = system: Clostridium difficile; assay: microbe, parasite or virus in culture; type: cell-based; settings: for MIC: Clostridioides difficile, read-out: Minimal Inhibitory Concentration (MIC)
Source text: Compounds I to VII were screened against twelve clinical isolates of Clostridium difficile.
In addition, compounds L to LIII were screened against […] isolates of Clostridium difficile.

[6] = system: C. difficile strain VPI 10463; type: in vivo; settings: hamster, three times daily at 50 mg/kg/day, 5-day dosing period
Experimental: The in vivo efficacy of two type B Lantibiotics in the treatment of C. difficile infections was evaluated in the standard animal model for CDAD: clindamycin-induced cecitis in hamster (FIG. 3). Four groups of six animals were dosed orally with approximately 10^7 cells of C. difficile strain VPI 10463 and 24 hours later with a subcutaneous dose of 10 mg/kg clindamycin phosphate.

[7] = system: E. coli
[8] = system: E. faecium
[9] = system: Bifidobacterium adolescentis NCTC 11814
[10] = system: Bifidobacterium longum NCTC 11818
[11] = system: Bacteroides fragilis NCTC 9343
[12] = system: Bacteroides thetaiotaomicron NCTC 10582
[13] = system: C. difficile 630; settings: hamster, three times daily at 50 mg/kg/day for 5 days, groups of 6
Experimental: The in vivo efficacy of compound VII in the treatment of C. difficile infections was evaluated in the clindamycin-induced cecitis model in hamster (FIG. 4). Groups of 6 animals were given a subcutaneous dose of 10 mg/kg clindamycin phosphate. 24 hours later, the animals received oral inocula of ˜10^4 spores of C. difficile 630, prepared by heating overnight BHI culture fluids to 56° C. for 10 min and recovering spores by centrifugation and re-suspension of the pellet in an equal volume of PBS.

[14] = rat, 100 mg/kg oral
Experimental: Male Sprague-Dawley rats were dosed with compound VII at 100 mg/kg via the oral route. Faeces and urine were collected over a 48 h period in two batches (24 h and 48 h post dose). Blood samples were taken at various time points for the first 24 h.

C=C1NC(=O)[C@@H]2NC(=O)[C@H](CC(C)C)NC(=O)[C@H](NC(=O)[C@@H]3CS[C@@H](C)[C@@H](NC(=O)[C@H](Cc4ccccc4)NC(=O)[C@@H]4NC(=O)[C@@H](N)CS[C@H]4C)C(=O)N[C@@H](CC(C)C)C(=O)N4CCC[C@H]4C(=O)NCC(=O)NCC(=O)NCC(=O)NCC(=O)N[C@@H](C(C)C)C(=O)N3)[C@H](C)SC[C@H](NC(=O)[C@H](CCC(=O)O)NC1=O)C(=O)N[C@@H]([C@@H](C)CC)C(=O)N/C=C\S[C@H]2C [Compound I, Mersacidin]
Stability (degradation) in Simulated Gastric Fluid [1]: None of the compounds showed appreciable degradation
Stability (degradation) in Simulated Intestinal Fluid [2]: essentially stable
In vitro activity against M. luteus during the course of the experiment [3]: remained unaltered
Effect on C. difficile spore viability / germination [4]: inactivate or prevent C. difficile spores from germinating
Viable counts of C. difficile spores ([4]; time 0 h): 177
Viable counts of C. difficile spores ([4]; time 4 h): 0
Viable counts of C. difficile spores ([4]; time 8 h): 0
Viable counts of C. difficile spores ([4]; time 24 h): 0

C=C1NC(=O)[C@@H]2NC(=O)[C@H](CC(C)C)NC(=O)[C@H](NC(=O)[C@@H]3CS[C@@H](C)[C@@H](NC(=O)[C@H](Cc4c[nH]c5ccccc45)NC(=O)[C@@H]4NC(=O)[C@@H](N)CS[C@H]4C)C(=O)N[C@@H](CC(C)C)C(=O)N4CCC[C@H]4C(=O)NCC(=O)NCC(=O)NCC(=O)NCC(=O)N[C@@H](C(C)C)C(=O)N3)[C@H](C)SC[C@H](NC(=O)[C@H](CCC(=O)O)NC1=O)C(=O)N[C@@H](C(C)CC)C(=O)N/C=C\S[C@H]2C (stereo partly shown) [Compound IV, F3W Mersacidin]
Minimal Inhibitory Concentration (MIC) [5]: 2 µg/mL
Survival of infected animals [6]: survived for the duration of the entire 5-day dosing period
Minimal Inhibitory Concentration (MIC) [7]: >64 µg/mL
Minimal Inhibitory Concentration (MIC) [8]: 32 µg/mL
Minimal Inhibitory Concentration (MIC) [9]: 32 µg/mL
Minimal Inhibitory Concentration (MIC) [10]: 16 µg/mL
Minimal Inhibitory Concentration (MIC) [11]: 32 µg/mL
Minimal Inhibitory Concentration (MIC) [12]: 16 µg/mL

CC[C@H](C)[C@@H]1NC(=O)[C@H](C(C)C)NC(=O)[C@@H]2NC(=O)CNC(=O)[C@@H]3CS[C@@H](C)[C@@H](NC(=O)[C@@H]4CSC[C@@H](N)C(=O)N[C@@H](CO)C(=O)NCC(=O)N[C@@H](Cc5c[nH]c6ccccc56)C(=O)N[C@@H](C(C)C)C(=O)N4)C(=O)N[C@@H](CC(C)C)C(=O)N[C@@H](C(=O)N[C@@H]([C@@H](C)CC)C(=O)N[C@@H](CCC(=O)O)C(=O)N3)[C@H](C)SC[C@H](NC1=O)C(=O)N[C@@H](C)C(=O)N[C@H](C(=O)NCCO)C[S+]([O-])[C@H]2C (stereo partly shown) [Compound VI, Actagardine N-[2-ethanolamine] monocarboxamide]
Stability (degradation) in Simulated Gastric Fluid [1]: None of the compounds showed appreciable degradation
Stability (degradation) in Simulated Intestinal Fluid [2]: essentially stable
Survival of infected animals [6]: survived for the duration of the entire 5-day dosing period

CC[C@H](C)[C@@H]1NC(=O)[C@@H]2NC(=O)[C@H](CC(C)C)NC(=O)[C@H](NC(=O)[C@@H]3CSC[C@@H](N)C(=O)N[C@@H](CO)C(=O)NCC(=O)N[C@@H](Cc4c[nH]c5ccccc45)C(=O)N[C@@H](C(C)C)C(=O)N3)[C@H](C)SC[C@H](NC(=O)[C@H](CCC(=O)O)NC1=O)C(=O)NCC(=O)N[C@H]1C(=O)N[C@@H](CC(C)C)C(=O)N[C@@H](C(C)C)C(=O)N[C@@H](CS[C@H]2C)C(=O)N[C@@H](C)C(=O)N[C@H](C(=O)NCCO)CS[C@H]1C [Compound VII, Deoxy-actagardine B N-[2-ethanolamine] monocarboxamide]
Stability (degradation) in Simulated Gastric Fluid [1]: None of the compounds showed appreciable degradation
Survival of infected animals [13]: all 6 of the infected mice survived
Material recovered from plasma [14]: No material was recovered
Material recovered from urine ([14]; urine collected over 48 h): No material was recovered

Cc1ncc([N+](=O)[O-])n1CCO [Metronidazole]
MIC ([5]; C. difficile strain 027C): 0.25 µg/mL (≈ 1.46 µM)
MIC ([5]; C. difficile strain 27SM): 0.125 µg/mL (≈ 0.73 µM)
MIC ([5]; C. difficile strain 19126): 0.25 µg/mL (≈ 1.46 µM)
MIC ([5]; C. difficile strain 37779): 0.125 µg/mL (≈ 0.73 µM)
MIC ([5]; C. difficile strain B32): 0.125 µg/mL (≈ 0.73 µM)
MIC ([5]; C. difficile strain E4): 0.25 µg/mL (≈ 1.46 µM)
MIC ([5]; C. difficile strain E16): 8 µg/mL (≈ 46.7 µM)
MIC ([5]; C. difficile strain E101): 0.125 µg/mL (≈ 0.73 µM)
MIC ([5]; C. difficile strain P24): 0.25 µg/mL (≈ 1.46 µM)
MIC ([5]; C. difficile strain P49): 0.125 µg/mL (≈ 0.73 µM)
MIC ([5]; C. difficile strain P59): 0.25 µg/mL (≈ 1.46 µM)
MIC ([5]; C. difficile strain P62): 0.25 µg/mL (≈ 1.46 µM)
Effect on C. difficile spore viability / germination [4]: no significant effect on spore viability
Viable counts of C. difficile spores ([4]; time 0 h): 177
Viable counts of C. difficile spores ([4]; time 4 h): 154
Viable counts of C. difficile spores ([4]; time 8 h): 144
Viable counts of C. difficile spores ([4]; time 24 h): 120
